Measured values taken from ChEMBL document CHEMBL3886450, “Tricyclic indole derivatives useful endothelial lipase inhibitors” (2015).

Molecular target: T1, Endothelial lipase (Homo sapiens, UniProt Q9Y5X9)
T1 sequence (Q9Y5X9 whole entry): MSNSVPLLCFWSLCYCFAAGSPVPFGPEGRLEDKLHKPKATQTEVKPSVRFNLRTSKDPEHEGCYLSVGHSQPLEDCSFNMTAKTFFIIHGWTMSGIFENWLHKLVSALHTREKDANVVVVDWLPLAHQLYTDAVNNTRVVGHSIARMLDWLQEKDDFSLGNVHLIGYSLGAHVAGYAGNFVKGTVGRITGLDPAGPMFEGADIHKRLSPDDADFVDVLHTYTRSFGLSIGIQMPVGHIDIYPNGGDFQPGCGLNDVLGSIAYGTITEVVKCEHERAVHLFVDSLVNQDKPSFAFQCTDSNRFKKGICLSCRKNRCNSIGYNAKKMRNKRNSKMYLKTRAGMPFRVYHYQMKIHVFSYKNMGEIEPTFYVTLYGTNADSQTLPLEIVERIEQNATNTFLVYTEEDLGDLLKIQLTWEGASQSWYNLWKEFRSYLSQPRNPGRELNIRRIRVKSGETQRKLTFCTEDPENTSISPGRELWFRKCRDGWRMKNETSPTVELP
Assay: Endothelial Lipase Assay: To assay for cell surface lipase activity, cells expressing human endothelial lipase (EL) or LPL were plated in CellBIND® 384-well plates (Corning, Lowell, Mass.) in 25 μL serum free medium at a density of 2000 cells/well. After 18-24 hours incubation at 37° C., the medium was removed and replaced with 15 μL assay buffer [Hank's Buffered Saline Solution with 25 mM HEPES pH 7.2] and 15 μL PLA1 substrate for a final concentration of 10 μM using a Multidrop reagent dispenser. Fluorescence signal was monitored for 30 min at 37° C. on a Safire II plate reader in kinetic mode (60 cycles, kinetic interval: 30 seconds) with an excitation wavelength of 490 nm and an emission wavelength of 515 nm.
Type: cell-based

Compound | IC50 [µM]
NS(=O)(=O)N1CCn2c(CCc3ccccc3)c(C(F)(F)F)c3cccc(c32)C1 | 0.068
CC(CC(=O)N1CCn2c(CCc3ccccc3)c(C(F)(F)F)c3cccc(c32)C1)C(F)(F)F (configuration not stated) | 0.101
